These results are taken from paper PMC9240925, “Mechanistic study of the solubilization effect of basic amino acids on a poorly water-soluble drug” (RSC Advances, 2022).

Values after ≈ are worked out from the molar mass of the structure shown. Read-outs that look alike come from different tables or passages of the source.

Series [1] can be described thus: Differential scanning calorimetry, glass transition. The conditions noted are these: for Tg, Gordon–Taylor (glass transition temperature): calculated by Gordon–Taylor equation with crystalline densities. Type of series: physicochemical. How it is done: DSC was performed using a Q20 instrument V24.7 build 119 thermal analysis system with an intercooler system (Elstree, United Kingdom). The DSC system was calibrated and validated using indium (average melting temperature 156.36 ± 0.03 °C and enthalpy 29.81 ± 0.05 J g^−1). Powder samples of 1 to 5 mg were weighed in T-zero aluminum pans with T-zero lids (TA Instruments – A Division of Waters Ltd, Centennial Avenue, Elstree, Hertfordshire, United Kingdom). […] All results were analyzed using the TRIOS software for the phases transitions to determine the glass transition temperature (Tg) and melting point (Tm).
Indomethacin (as received) was analyzed in two heating cycles to produce an amorphous form. The first cycle was to measure the Tm of the crystalline form and the second cycle was for obtaining the Tg of amorphous indomethacin. The freeze-dried complexes and crystalline arginine, histidine and lysine were undergone one heating cycle to determine the Tg or Tm. The Tg described by Gordon–Taylor[39] was determined for drug–basic amino acids binary systems using the given equations below.
The Gordon–Taylor equation from composite glasses:3 [drawing 3]
T g(mix) is the glass transition temperature of a binary mixture, w1 and w2 are the weight fraction and Tg1 and Tg2 are the glass transitions temperature of individual compound in the mixture, K is typically considered an empirical constant:4 [drawing 4] where p1 and p2 are the powder densities of the single amorphous components. The crystalline densities of compounds (pIND = 1.379 g cm^−3pARG = 1.325 g cm^−3, pHIS = 1.412 g cm^−3 and pLYS = 1.237 g cm^−3) were used as approximation because small differences in density were reported between crystalline and amorphous form of small molecular compound.[9]

For series [2] the following is noted: cited from earlier work.
Details of series [3]: method as in as printed in each cell: ref 60, 62, 63, 10, 64. The conditions noted are these: cited from earlier work.
On the set-up of series [4]: method as in ref 34 = [34]; Robert C. W. , Handbook of Chemistry and Physics , ed. R. C. Weast , CRC Press , Ohio , 55th edn, 1975. The conditions noted are these: at 25 °C; cited from earlier work.
The nature of series [5]: Drug content and chemical stability of freeze-dried mixtures by UV-Vis. Type of series: physicochemical. The conditions noted are these: with all amino acids, peak position at 320 nm. As to the method:
The resulting filtrates were frozen for 24 hours at −80 °C and then freeze-dried for 48 hours (LTE Scientific Lyotrap Freeze Dryer, Great Britain, Greenfield, Oldham) with the system temperature of −51 ± 2 °C, pressure of around 0.1 mbar and the vacuum pump operated at a flow rate of 21 m^3 h^−1. The freeze-dried samples were then transferred into a plastic vacuum desiccator containing phosphorous pentoxide desiccant (P2O5) at ambient temperature (22 ± 2 °C). Indomethacin–sodium salt was also produced for comparison purposes.
The freeze-dried samples were prepared by dissolving 10 mg freeze-dried materials in water in a 10 mL volumetric flask. The solutions were then diluted to concentrations that fall within the calibration curve and analyzed at 320 nm. The percentage drug content[37] was calculated by eqn (2)2 [drawing 2]

On the set-up of series [6]: method as in ref 34 = [34]; Robert C. W. , Handbook of Chemistry and Physics , ed. R. C. Weast , CRC Press , Ohio , 55th edn, 1975. The conditions noted are these: cited from earlier work.
On the set-up of series [7]: method as in ref 42 = [42]; Archontaki H. A. Kinetic Study on the Degradation of lndomethacin in Alkaline Aqueous Solutions by Derivative Ultraviolet Spectrophotometry Analyst 1995 120 1 8. The conditions noted are these: pH = 13; cited from earlier work.
The nature of series [8]: Hydrotropic solubilization in amino acid solutions at controlled pH. It is filed as physicochemical. As to the method:
The pH of the solutions was adjusted by adding 0.1 M hydrochloric acid and monitored with a pH meter (OXOID limited, England). Excess indomethacin was then added to the amino acid solutions. The suspension was stirred with a magnetic stirrer for 24 hours at 30 ± 2 °C or 45 ± 2 °C until it is equilibrated followed by adjusting the pH again. The samples were then filtered via a membrane filter (syringe filter, 0.45 μm sterile).

Series [9] in a line: Phase solubility diagrams of indomethacin in basic amino acid solutions and complexation efficiency. It is filed as physicochemical. Conditions: 30 °C.
Protocol: After equilibration, the mixtures were centrifuged at 3750 rpm for 10 minutes (Beckman Coulter Allegra X-12 Series). […] The supernatant was filtered via a membrane filter (syringe filter, 0.45 μm sterile). The solutions were then diluted within the calibration curve range and analyzed spectrophotometrically at 260 nm. The precipitates (solid phase) were filtered again using filter paper (Whatman Grade 3). The solid phase was dried in an oven at 70 °C for 30 minutes, then examined using FTIR.
The complexation or solubilizing efficiency (CE)[36] was calculated from the slope of the linear drug–amino acid phase solubility (PS) diagram using the following eqn (1):1 [drawing 1] where K1:1 indicates to the stability constant, which is used to compare the affinity of drug to different amino acids. S0 refers to the intrinsic solubility, [drug–amino acid complex] is the concentration of dissolved drug–amino acid complex, [amino acid] is the concentration of dissolved free amino acid and slope is the slope of the phase solubility diagram.
Series [10] can be described thus: Physical and chemical stability of indomethacin in solution (UV-Vis). Type of series: physicochemical. How it is done: Spectra were collected using the UV Lambda software over the wavelength range of 400 nm–200 nm. The same solvent without the drug/amino acid was used as the reference. Samples were analyzed at identical conditions: slit width 1 nm, bandwidth 0.5 nm, pair cuvette cells 1 cm.
The results were recorded for samples stored over a week at ambient temperature (25 ± 1 °C). Chemical stability was confirmed by measuring the UV absorbance at 320 nm.

The nature of series [11]: pH-solubility study, shake flask method. The conditions noted are these: mean ± SD n = 3. It is filed as physicochemical. As to the method:
The samples were then filtered using a membrane filter (syringe filter, 0.45 μm sterile). The filtered solutions were diluted within the range of calibration curves and analyzed spectrophotometrically at 260 nm.

Turning to `N=C(N)NCCC[C@H](N)C(=O)O` [Arginine, L-arginine], in [1], the “Tg, Gordon–Taylor (glass transition temperature)” value (“Tg, Gordon–Taylor” for short) is 55.0 °C.
In the case of `NCC(=O)O` [Glycine, glycine], the “pI (isoelectric point)” value in series [2] was 5.97.
Turning to `N[C@@H](Cc1c[nH]cn1)C(=O)O` [Histidine, L-histidine], the “Tg, lit. (glass transition temperature)” value in series [3] is 37.0 (ref. [63]) °C. In addition, the “pI (isoelectric point)” value in series [2] is recorded as 7.59. Besides, the “Tg, Gordon–Taylor” value in series [1] was 37.0 °C. Moreover, the Water solubility in series [4] was 4.20 g/100 mL.
Consider `COc1ccc2c(c1)c(CC(=O)O)c(C)n2C(=O)c1ccc(Cl)cc1` [Indomethacin], for which the “Chemical stability after freeze-drying” value in [5] is reported as “chemically stable”. For the same compound, the “log p (partition coefficient)” value in series [6] is 4.05. In series [7], the “Stability in solution of high pH” value was “rapidly hydrolyzed”. Also, the “Tg, lit. (glass transition temperature)” value in series [3] is 42.0 (ref. [60]) °C. Further, the “Solubility improvement of ionized indomethacin compared to aqueous solubility at same pH without histidine” value in series [8] (0.35 M histidine solution, pH 7) is about 8 fold. In addition, the “Solubility improvement of unionized indomethacin compared to intrinsic solubility in water” value is on record as about 25 fold in [8] (1.5 M isoleucine solution, pH 1.2, 30 °C) and about 11 fold in [8] (1.6 M arginine solution, pH 1.2, 30 °C). Also, in [8] (glycine solution, same concentration, pH 1.2, 30 °C), the “Solubility change of unionized indomethacin compared to intrinsic solubility in water” value is “did not change”. For the same compound, in series [1] (DSC 5 °C/min, n = 3, IND melt quench, mixtures freeze-dried), the “Tg, exp. (glass transition temperature)” value stood at 42.1 ± 0.5 °C. In addition, the “Tg, Gordon–Taylor” value in series [1] is 42.1 °C. The results for the “Phase solubility diagram type (Higuchi and Connors)” value in series [9] (indomethacin in arginine solution above 250 mM), in series [9] (indomethacin in arginine solution below 250 mM) and in [9] (indomethacin in lysine solutions) were “AN-type”, “AL-type” and “Bs-type”, respectively. The “Stability in solution (UV absorbance)” value is given as “gradually degraded after 24 hours” in [10] (arginine solution, pH 10.3); “remains stable” in series [10] (basic amino acid solutions, pH 6.3 to 10.3, duration of experiment less than 24 hours); “stable over a week” in series [10] (histidine solution, pH 7.5); “gradually degraded after 24 hours” in [10] (lysine solution, pH 10). For the same compound, the “Stability of indomethacin concentration in lysine aqueous solution on storage” value in [10] (lysine concentration between 27 and 37 mM (supersaturated, partial precipitation)) is recorded as “dropped after 1 day of storage”; in series [10] (lysine concentrations below 27 mM, examined for ten days) it was “appears stable”. The Water solubility in series [4] was 0.009 g/100 mL. Besides, the solubility at 24 h is 0.95 µM (≈ 0.34 µg/mL) in [11] (25 °C, simulated gastric fluid, thermodynamic from solid, 25 ± 2 °C, water pH 1.2, unionized form, read-out: Intrinsic solubility (S0)); 64.2 µM (≈ 23 µg/mL) in series [11] (25 ± 2 °C, water pH 6.3, ionized and unionized forms, read-out: Aqueous solubility (S)); 81.6 µM (≈ 29.2 µg/mL) in series [11] (30 °C, aqueous buffer, thermodynamic from solid, 30 ± 2 °C, water pH 6.3, ionized and unionized forms, read-out: Aqueous solubility (S)); 1.18 µM (≈ 0.422 µg/mL) in series [11] (30 ± 2 °C, water pH 1.2, unionized form, read-out: Intrinsic solubility (S0)).
For `CC[C@H](C)[C@H](N)C(=O)O` [Isoleucine, L-isoleucine], the “log p (partition coefficient)” value in [6] was −1.70. For the same compound, in [2], the “pI (isoelectric point)” value is given as 6.04. Further, the Water solubility in [4] is recorded as 0.41 g/100 mL.
Turning to `NCCCC[C@H](N)C(=O)O` [Lysine, L-lysine], in [3], the “Tg, lit. (glass transition temperature)” value was 68.0 (ref. [63]) °C. In [2], the “pI (isoelectric point)” value is on record as 9.47. In series [1], the “Tg, Gordon–Taylor” value was 68.0 °C. Further, in series [4], the Water solubility entry is listed as “Very soluble”.

What is called solubility is the concentration that dissolves in the medium under given conditions.
